According to US7060486B2, “Inhibition of sulfate-reducing-bacteria-mediated degradation using bacteria which secrete antimicrobials” (priority 1998, dated 2006):
“Also recorded” adds a separate entry of the source. Bridge positions count the residues as written; N and C are the ends. Square brackets hold non-standard residues; d marks the D form. Peptide text beside a SMILES is read from it. * marks the point of attachment. X1 = CC[C@H](C)CCCCC(=O)*; Dab = NCC[C@H](N)C(=O)O

Experiments:
[1] = test system: D. gigas (ATCC 19364); experiment: SRB inhibitory assay: viability after one-hour exposure, MPN technique; format: cell-based; details: 100 μg/mL, one-hour exposure
Protocol: (§1) D. vulgaris (ATCC 29579) and D. gigas (ATCC 19364) were obtained from the American Type Culture Collection and cultivated in 15 mL screwcap tubes with 10 mL of modified Baar's medium (ATCC medium 1249) supplemented with 100 μL each of the oxygen-scavengers 4% sodium sulfide and Oxyrase (Oxyrase Inc., Mansfeld, Ohio). Initial cultures were grown from −85° C. glycerol stocks; all subsequent cultures were grown with a 3% inoculum from the initial culture maintained at 30° C. without shaking. […] SRB were also cultured periodically in the presence of 0.1% ferrous ammonium sulfate, and the presence of these sulfate-reducers was confirmed by the detection of black iron sulfide in the culture tubes. The desulfoviridin assay was also performed after each MPN assay to confirm the presence of D. vulgaris or D. gigas by its red color under UV light due to the release of the chromophore of the pignment desulfoviridin. (Postgate, 1984).
(§2) For determining the viability indices (Romeo, et al., 1988) of SRB, a late-exponential phase culture (O.D600 0.16 to 0.19 which corresponded to an initial cell number of 5–9×10^4 cells/mL) was exposed to various concentrations of antimicrobials for 1 hour at 30° C. One mL of cells was harvested, washed once in fresh modified Baar's medium to remove cellular debris, and resuspended in 1 mL of fresh modified Baar's medium supplemented with 10 μL each of Oxyrase (Oxyrase Inc., Mansfeld, Ohio) and 4% sodium sulphide. Aliquots of 450 μL were dispensed in 500 μL sterile eppendorf tubes and appropriate amounts of antimicrobials added and incubated at 30° C. The effectiveness of treatment was determined by the multiple-tube most-probable-number (MPN) fermentation technique. (Anonymous. Multiple-tube fermentation technique for members of the coliform group, pp. 9–45 to 9–51. In A. E. Greenberg, L. S. Clesceri, and A. D. Eaton (eds.), Standard Methods for the Examination of Water and Wastewater, 18 ed. American Public Health Association, American Water Works Association, and Water Pollution Control Federation, New York (1992)) (hereafter, Greenberg, 1992).
(§3) The MPN test for enumerating SRB was performed in three 12 mL tubes with a 1000 μL inoculum of SRB, three 12 mL tubes with a 500 μL inoculum, and three 12 mL tubes with a 100 μL inoculum. All nine tubes contained a final volume of 10 mL of modified Baar's medium supplemented with 100 μL each of 4% sodium sulfide and Oxyrase (Oxyrase Inc., Mansfeld, Ohio). The tubes were monitored for 72 hours to determine the number of tubes that were positive for growth. Growth was determined by the increase in culture turbidity, and the MPN index/mL was calculated using the Thomas formula. (Greenberg 1992).

[2] = test system: D. vulgaris (ATCC 29579); experiment: as above; format: cell-based; details: one-hour exposure
Protocol: as §1, §2, §3

[3] = test system: D. vulgaris; experiment: Susceptibility of SRB cultures to antibiotics and inorganics; format: cell-based
Protocol: (§4) D. vulgaris and D. gigas were incubated in the presence of various antimicrobial peptides, and their viability after one-hour exposure was determined. […] D. gigas was inhibited by anthraquinone at 100 μg/mL (Cooling et al., 1996), and both SRB were inhibited by sodium molybdate at 100 μg/mL. This is similar to the observation of Saleh, et al., 1964, who surveyed nearly 200 compounds for their SRB-inhibitory activity and noted that SRB show a high degree of resistance to inhibitory compounds (Id.).

[4] = test system: SRB (D. vulgaris) on 304 stainless steel; experiment: Continuous reactor with 304 stainless steel and SRB, electrochemical impedance spectroscopy
Protocol: Batch culture corrosion experiments using SAE 1018 mild steel coupons (2.5 cm diameter, 1.2 mm thick) were performed in triplicates in 250 mL Erlenmeyer flasks at 30° C. without shaking as described previously (Jayaraman et al., 1997a). A continuous reactor (Jayaraman et al., 1997c) was also used to develop biofilms on 304 stainless steel and monitor corrosion using electrochemical impedance spectroscopy (EIS) in a minimum of two independent reactors using a Solarton-Schlumberger electrochemical measurement unit (SI 1280, Schlumberger Technical Instruments Division, San Jose, Calif.) interfaced to a Macintosh computer (PowerMac 7100/80, Apple Computers, Cupertino, Calif.) running EISIS electrochemical experimentation software (University of California, Irvine) (similar commercial software, THALES, can also be used). The open circuit potential (OCP) was measured as the potential between the metal specimen and a Ag/AgCl reference electrode, and the polarization resistance (Rp) was determined as the low-frequency value of the impedance (where the imaginary part of the impedance was zero or negligible). Continuous culture corrosion rates were estimated as the inverse of the polarization resistance (Macdonald, D. D. and M. C. H. McCubre, Applications of impedance spectroscopy, p. 262–267. In J. R. Macdonald (ed.), Impedance spectroscopy: Emphasizing solid materials and systems, John Wiley & Sons, New York (1987); Stem, M., Journal of Electrochemical Society, 105(11):638–647 (1958)).
A continuous reactor was used to develop biofilms on metal surfaces as previously described (Jayaraman et al., 1997c). Electrochemical impedance spectroscopy (EIS) was used to obtain impedance data in at least duplicate experiments using a Solarton-Schlumberger electrochemical measurement unit (SI 1280, Schlumberger Technical Instruments Division, San Jose, Calif.) interfaced to a Macintosh computer (PowerMac 7100/80, Apple Computers, Cupertino, Calif.) running EISIS electrochemical experimentation software (University of California, Irvine) (THALES, a similar commercial software, can also be used). The open-circuit potential (OCP) was measured as the potential between the metal specimen and the reference electrode (Ag/AgCl), and the polarization resistance was determined as the dc limit of the impedance using the ANALEIS software developed by Mansfeld et al. (ASTM Special Technical Protocol 1154:186 (1992)). […]

[5] = test system: SRB (D. vulgaris) on SAE 1018 mild steel; experiment: Continuous reactor with SAE 1018 mild steel and SRB, electrochemical impedance spectroscopy
Excerpt: A continuous reactor was used to develop biofilms on metal surfaces as previously described (Jayaraman et al., 1997c). Electrochemical impedance spectroscopy (EIS) was used to obtain impedance data in at least duplicate experiments using a Solarton-Schlumberger electrochemical measurement unit (SI 1280, Schlumberger Technical Instruments Division, San Jose, Calif.) interfaced to a Macintosh computer (PowerMac 7100/80, Apple Computers, Cupertino, Calif.) running EISIS electrochemical experimentation software (University of California, Irvine) (THALES, a similar commercial software, can also be used). The open-circuit potential (OCP) was measured as the potential between the metal specimen and the reference electrode (Ag/AgCl), and the polarization resistance was determined as the dc limit of the impedance using the ANALEIS software developed by Mansfeld et al. (ASTM Special Technical Protocol 1154:186 (1992)). Continuous culture corrosion rates were estimated from the experimental polarization resistance Rp based on the Stern-Geary equation Rp=B/Icorr, where B is a parameter depending on the Tafel slopes and icorr is the corrosion current density which can be converted into a corrosion rate using Faraday's law (Mansfeld, F., The polarization resistance technique for measuring corrosion currents, In Fontana, M. G., Staehle, R. W. (ed.), Advances in Corrosion Science and Technology, Plenum Press, New York (1976)).
A 3% (vol/vol) SRB inoculum (culture age 24–48 hours) was added to the reactor after 3 to 5 days of aerobic biofilm development. […] All antimicrobials were simultaneously added to the nutrient feed and the reactor at appropriate concentrations.

[6] = test system: P. fragi K; experiment: Growth of P. fragi K in overnight suspension cultures with antimicrobials; format: cell-based; details: 100 μg/mL, overnight suspension culture
[7] = test system: D. vulgaris; details: literature (Saleh 1964/Postgate 1984; Odom and Singleton 1993), suspension cultures; cited from earlier work
[8] = test system: D. gigas; experiment: Susceptibility of SRB cultures to antibiotics and inorganics; format: cell-based
Protocol: as §4

[9] = test system: B. polymyxa 10401; experiment: Susceptibility of host strains to purified antimicrobials (plate counts); format: cell-based; details: 50 μg/mL, one hour exposure at 30° C.
Protocol: (§5) To determine the susceptibility of the hosts B. subtilis BE1500 and B. polymyxa to the expressed antimicrobials, these strains were grown from a single colony in 25 mL of LB medium with shaking at 37° C. to an O.D600 of 0.40–0.45. One mL aliquots were collected, washed with fresh LB medium and resuspended in 100 μL fresh LB medium in sterile eppendorf tubes. The antimicrobials indolicidin and bactenecin were added (50–100 μg/mL) and the tubes were incubated at 30° C. for one hour without shaking. Appropriate dilutions were spread on LB agar plates and incubated overnight at 37° C. to determine the extent of survival. The results were confirmed by performing two independent experiments.

[10] = test system: B. subtilis BE1500; experiment: as above; format: cell-based
Protocol: as §5

[11] = test system: B. subtilis WB600; experiment: as above; format: cell-based; details: 50 μg/mL, one hour exposure at 30° C.
[12] = test system: Escherichia coli; details: 100 μg/mL; cited from earlier work
[13] = 100 μg/mL added to P. fragi K biofilm 24 hours before D. vulgaris
[14] = 100 μg/mL added to P. fragi K biofilm before D. vulgaris

gramicidin D
reduction of viability [1]: approximately 90%
reduction of viability ([2]; 100 μg/mL): approximately 90%

CC1(C)S[C@@H]2[C@H](NC(=O)[C@H](N)c3ccccc3)C(=O)N2[C@H]1C(=O)O [ampicillin]
concentration that inhibits the strain [3]: 20 µg/mL
effect on D. vulgaris, in words [4, 13]: completely inhibited
time after D. vulgaris addition without change in impedance spectra and Rp [4, 14]: ≥ 100 h
effect on SRB, in words ([4]; antimicrobial added to dual-culture reactor after SRB, ampicillin 200 μg/mL, chloramphenicol 100 μg/mL, ammonium molybdate 200 μg/mL): SRB had not been killed
effect on D. vulgaris, in words [5, 13]: completely inhibited
time after D. vulgaris addition without change / increase in Rp [5, 14]: ≥ 100 h
effect on SRB, in words ([5]; antimicrobial added after SRB growth on mild steel): did not change Rp; also recorded: no inhibition of SRB
time to onset of SRB-induced corrosion after ampicillin containing medium was discontinued ([5]; mild steel reactors): ≤ 36 h
growth of P. fragi K, in words [6]: grew to saturation
concentration that inhibits D. vulgaris [7]: 1 µg/mL

O=C1c2ccccc2C(=O)c2ccccc21 [anthraquinone]
concentration that inhibits the strain [8]: 100 µg/mL

O=C(N[C@H](CO)[C@H](O)c1ccc([N+](=O)[O-])cc1)C(Cl)Cl [chloramphenicol]
concentration that inhibits the strain [3]: 20 µg/mL
concentration that inhibits D. vulgaris [7]: 3 µg/mL

CC[C@H](C)[C@H](N)C(=O)N[C@@H](CC(C)C)C(=O)N1CCC[C@H]1C(=O)N[C@@H](Cc1c[nH]c2ccccc12)C(=O)N[C@@H](CCCCN)C(=O)N[C@@H](Cc1c[nH]c2ccccc12)C(=O)N1CCC[C@H]1C(=O)N[C@@H](Cc1c[nH]c2ccccc12)C(=O)N[C@@H](Cc1c[nH]c2ccccc12)C(=O)N1CCC[C@H]1C(=O)N[C@@H](Cc1c[nH]c2ccccc12)C(=O)N[C@@H](CCCN=C(N)N)C(=O)N[C@@H](CCCN=C(N)N)C(N)=O [Ind-NH2, indolicidin]
reduction of viability ([2]; 25 μg/mL, late-exponential-phase culture): 99.3%

CC[C@H](C)[C@@H]1NC(=O)[C@H](CCCNC(=N)N)NC(=O)[C@@H](NC(=O)[C@H](CC(C)C)NC(=O)[C@@H](N)CCCNC(=N)N)CSSC[C@@H](C(=O)N[C@@H](CCCNC(=N)N)C(=O)O)NC(=O)[C@H](C(C)C)NC(=O)[C@H](CCCNC(=N)N)NC(=O)[C@H]([C@@H](C)CC)NC(=O)[C@H](C(C)C)NC(=O)[C@H](C(C)C)NC1=O [bactenecin] (H-RLCRIVVIRVCR-OH; disulfide 3-11; N-terminus and C-terminus assumed)
Fold-reduction in cell number [9]: 2
factor by which the strain is more resistant to bactenecin than to indolicidin [10]: 60
Fold-reduction in cell number ([10]; 50 μg/mL, one hour exposure at 30° C.): 100
Fold-reduction in cell number [11]: 400
inhibition [12]: 95%

[Na+].[Na+].[O]=[Mo](=[O])([O-])[O-] [sodium molybdate]
concentration that inhibits the strain [8]: 100 µg/mL
concentration that inhibits the strain [3]: 100 µg/mL

CC[C@H](C)CCCCC(=O)N[C@@H](CCN)C(=O)N[C@H](C(=O)N[C@@H](CCN)C(=O)N[C@H]1CCNC(=O)[C@H]([C@@H](C)O)NC(=O)[C@H](CCN)NC(=O)[C@H](CCN)NC(=O)[C@H](CC(C)C)NC(=O)[C@@H](Cc2ccccc2)NC(=O)[C@H](CCN)NC1=O)[C@@H](C)O [polymyxin B] (X1-[Dab]T[Dab][Dab][Dab][dF]L[Dab][Dab]T; lactam 4-C (inferred); N-terminus assumed)
reduction of viability [1]: approximately 90%
reduction of viability ([2]; 100 μg/mL): approximately 90%
concentration that inhibits D. vulgaris [7]: 100 µg/mL
